Measured values reported in ChEMBL document CHEMBL1201862, “PubChem BioAssay data set” (2004).
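Protocol summary: plate cells (96-well), add compound at 5 concentrations, incubate 48 h, interpolate endpoints linearly. The concentration for 50% growth inhibition is given as GI50.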 The source made the active and inactive calls. Rule as the data show it: active = GI50 up to about 1.1 µM and inactive = higher.

How the values were obtained:
Experiment in all cases: DTP human tumour cell line panel, 48 h
A498 = test system: A498
HCT-116 = test system: HCT-116
HOP-92 = test system: HOP-92
HT-29 = test system: HT-29
NCI-H226 = test system: NCI-H226
RPMI-8226 = test system: RPMI-8226
RXF 393 = test system: RXF 393
SF-268 = test system: SF-268
SK-MEL-28 = test system: SK-MEL-28
SK-OV-3 = test system: SK-OV-3
SN12C = test system: SN12C
SNB-19 = test system: SNB-19
U-251 = test system: U-251
UACC-257 = test system: UACC-257
UO-31 = test system: UO-31
EKVX = test system: EKVX
HL-60 = test system: HL-60
MOLT-4 = test system: MOLT-4
NCI-H522 = test system: NCI-H522
SF-539 = test system: SF-539

| SMILES | GI50 (A498) | GI50 (HCT-116) | GI50 (HOP-92) | GI50 (HT-29) | GI50 (NCI-H226) | GI50 (RPMI-8226) | GI50 (RXF 393) | GI50 (SF-268) | GI50 (SK-MEL-28) | GI50 (SK-OV-3) | GI50 (SN12C) | GI50 (SNB-19) | GI50 (U-251) | GI50 (UACC-257) | GI50 (UO-31) | GI50 (EKVX) | GI50 (HL-60) | GI50 (MOLT-4) | GI50 (NCI-H522) | GI50 (SF-539) |
| --- | --- | --- | --- | --- | --- | --- | --- | --- | --- | --- | --- | --- | --- | --- | --- | --- | --- | --- | --- | --- |
| CCOC(=O)c1sc2nc(SC)nc3c2c1NCN3C | 15.2 µM (inactive) | 22 µM (inactive) | 11.5 µM (inactive) | > 100 µM (inactive) | 31.7 µM (inactive) | > 100 µM (inactive) | 13.2 µM (inactive) | 16.7 µM (inactive) | > 100 µM (inactive) | 16.1 µM (inactive) | 30.6 µM (inactive) | 20.5 µM (inactive) | 20.6 µM (inactive) | > 100 µM (inactive) | 11.9 µM (inactive) |  |  |  |  |  |
| CC(=O)c1ccc(OCC(O)CO)cc1 (stereo unspecified) | > 100 µM (inactive) | 17.3 µM (inactive) | > 100 µM (inactive) | 61.4 µM (inactive) | > 100 µM (inactive) | 62.7 µM (inactive) |  | > 100 µM (inactive) | > 100 µM (inactive) | > 100 µM (inactive) | > 100 µM (inactive) | > 100 µM (inactive) | 49.8 µM (inactive) | > 100 µM (inactive) | > 100 µM (inactive) | > 100 µM (inactive) | > 100 µM (inactive) | > 100 µM (inactive) | > 100 µM (inactive) | > 100 µM (inactive) |
| COC(=O)C1CC2CC1C1C2SC(F)(F)C1(F)F (stereo unspecified) | > 100 µM (inactive) | > 100 µM (inactive) |  |  | > 100 µM (inactive) | > 100 µM (inactive) | > 100 µM (inactive) | > 100 µM (inactive) | > 100 µM (inactive) | > 100 µM (inactive) | > 100 µM (inactive) | > 100 µM (inactive) | > 100 µM (inactive) | > 100 µM (inactive) | > 100 µM (inactive) | > 100 µM (inactive) |  | > 100 µM (inactive) | > 100 µM (inactive) | > 100 µM (inactive) |
| COC(=O)C1=C(C(=O)OC)SC2(S1)C1=C(CCC1)SC(C(=O)OC)=C2C(=O)OC | 9.12 µM (inactive) | 1.77 µM (inactive) | 10.2 µM (inactive) | 4.58 µM (inactive) |  | 1.86 µM (inactive) | 4.62 µM (inactive) | 15.5 µM (inactive) | 10.7 µM (inactive) | 16.9 µM (inactive) | 10.7 µM (inactive) | 19.6 µM (inactive) | 15.6 µM (inactive) | 15.7 µM (inactive) | 10.8 µM (inactive) | 14.9 µM (inactive) | 6.76 µM (inactive) | 2.29 µM (inactive) | 2.99 µM (inactive) | 1.48 µM (inactive) |
| O=C1Sc2ccccc2C(=O)N2CCSC12 (stereo unspecified) | 31 µM (inactive) | > 100 µM (inactive) | > 100 µM (inactive) |  |  | > 100 µM (inactive) | > 100 µM (inactive) |  | > 100 µM (inactive) | > 100 µM (inactive) | > 100 µM (inactive) | > 100 µM (inactive) | > 100 µM (inactive) | > 100 µM (inactive) | > 100 µM (inactive) |  | 82.6 µM (inactive) | > 100 µM (inactive) |  |  |
| Nc1ccc(N)c2c1C(=O)c1ccccc1C2=O | 7.35 µM (inactive) | 11.1 µM (inactive) | 36.2 µM (inactive) | 57.9 µM (inactive) | > 100 µM (inactive) | 9.16 µM (inactive) |  | 51.3 µM (inactive) | > 100 µM (inactive) | 2.49 µM (inactive) | 13.2 µM (inactive) | > 100 µM (inactive) | 17.3 µM (inactive) | > 100 µM (inactive) | 12.4 µM (inactive) | 87.5 µM (inactive) |  | 13.4 µM (inactive) | 9.48 µM (inactive) | 34.4 µM (inactive) |
| CCCC(C(=O)Nc1cccc2nc[nH]c12)C(=O)OCC (stereo unspecified) | > 100 µM (inactive) | > 100 µM (inactive) | > 100 µM (inactive) | > 100 µM (inactive) | > 100 µM (inactive) | > 100 µM (inactive) |  | > 100 µM (inactive) | > 100 µM (inactive) | > 100 µM (inactive) | > 100 µM (inactive) | > 100 µM (inactive) | > 100 µM (inactive) | > 100 µM (inactive) | > 100 µM (inactive) | > 100 µM (inactive) | > 100 µM (inactive) | > 100 µM (inactive) | 44.1 µM (inactive) | > 100 µM (inactive) |
| Cc1nc2c(n1-c1ccccc1)C(=O)c1ccccc1C2=O | > 100 µM (inactive) | 22.2 µM (inactive) |  | 32.7 µM (inactive) | 58.1 µM (inactive) |  | 75.2 µM (inactive) | 54.8 µM (inactive) | 96.2 µM (inactive) | > 100 µM (inactive) | 38.2 µM (inactive) | 50.2 µM (inactive) | 34 µM (inactive) | 22.4 µM (inactive) | 73.3 µM (inactive) | > 100 µM (inactive) | 14.7 µM (inactive) | 30.3 µM (inactive) | 25.2 µM (inactive) | 41.7 µM (inactive) |
| Cc1cc(O)c(C(=O)CC2(O)C(=O)Nc3c(Cl)cc(Cl)cc32)c(=O)o1 (stereo unspecified) | > 100 µM (inactive) | > 100 µM (inactive) | > 100 µM (inactive) | > 100 µM (inactive) | 88.1 µM (inactive) | 55.5 µM (inactive) |  | > 100 µM (inactive) | > 100 µM (inactive) | > 100 µM (inactive) | > 100 µM (inactive) | > 100 µM (inactive) | > 100 µM (inactive) | > 100 µM (inactive) | > 100 µM (inactive) | > 100 µM (inactive) | > 100 µM (inactive) | > 100 µM (inactive) | > 100 µM (inactive) | 61.1 µM (inactive) |
| CCCCCCCCC/C=C1\CC(CO)(COC(=O)c2ccccc2)OC1=O (stereo unspecified) | 26 µM (inactive) | 22.2 µM (inactive) | 9.82 µM (inactive) | 19.1 µM (inactive) | 23.2 µM (inactive) |  | 21.1 µM (inactive) | 22.7 µM (inactive) | 16.7 µM (inactive) | 18.3 µM (inactive) | 19.2 µM (inactive) | 20.9 µM (inactive) | 21.1 µM (inactive) | 26.5 µM (inactive) | 16.3 µM (inactive) | 15.3 µM (inactive) |  | 38.2 µM (inactive) | 17.9 µM (inactive) |  |
| CSC1=N/C(=C\c2ccc(C)cc2)C(=O)N1CN1CCCCC1 | > 100 µM (inactive) | 84.9 µM (inactive) | 67.3 µM (inactive) | 38.5 µM (inactive) | > 100 µM (inactive) | 32.3 µM (inactive) |  | 61.8 µM (inactive) | > 100 µM (inactive) | > 100 µM (inactive) | > 100 µM (inactive) | > 100 µM (inactive) | > 100 µM (inactive) |  | 37.2 µM (inactive) | 75.3 µM (inactive) |  | > 100 µM (inactive) | > 100 µM (inactive) |  |
| COc1ccc(C[C@@H]2OC3(C=CC(=O)CC3Sc3ccccc3)O[C@H]2Cc2ccc(OC)cc2)cc1 (stereo partly specified) | 4.08 µM (inactive) |  | 1.14 µM (inactive) | 1.79 µM (inactive) | 1.53 µM (inactive) | 0.31 µM (active) | 0.107 µM (active) | 0.335 µM (active) | 1.86 µM (inactive) | 3.15 µM (inactive) | 1.61 µM (inactive) | 2.61 µM (inactive) | 1.42 µM (inactive) | 1.47 µM (inactive) | 1.09 µM (active) |  | 1.12 µM (active) | 0.282 µM (active) |  | 1.64 µM (inactive) |
| Oc1cc(-c2ccc(Oc3ccccc3)cc2)nc2cc3c(cc12)OCO3 | > 100 µM (inactive) | > 100 µM (inactive) |  | > 100 µM (inactive) | 27.5 µM (inactive) | > 100 µM (inactive) | 57.5 µM (inactive) | > 100 µM (inactive) | > 100 µM (inactive) |  | > 100 µM (inactive) | > 100 µM (inactive) | > 100 µM (inactive) | > 100 µM (inactive) | > 100 µM (inactive) | > 100 µM (inactive) | > 100 µM (inactive) | > 100 µM (inactive) |  | > 100 µM (inactive) |
| CCOC(=O)/C(=C/c1ccco1)P(=O)(OCC)OCC | > 100 µM (inactive) | > 100 µM (inactive) | > 100 µM (inactive) | > 100 µM (inactive) | > 100 µM (inactive) | > 100 µM (inactive) |  | > 100 µM (inactive) | > 100 µM (inactive) | > 100 µM (inactive) | > 100 µM (inactive) |  | > 100 µM (inactive) | > 100 µM (inactive) | > 100 µM (inactive) | > 100 µM (inactive) | > 100 µM (inactive) | > 100 µM (inactive) | > 100 µM (inactive) | > 100 µM (inactive) |
| CS/C1=C(\c2ccc(C)cc2)N(c2ccccc2)C(=O)C(=O)N(c2ccccc2)/C(c2ccc(C)cc2)=C(/SC)SS1 | 50.5 µM (inactive) | > 100 µM (inactive) | > 100 µM (inactive) | > 100 µM (inactive) |  | > 100 µM (inactive) |  | > 100 µM (inactive) | > 100 µM (inactive) |  | > 100 µM (inactive) | > 100 µM (inactive) | > 100 µM (inactive) | > 100 µM (inactive) | > 100 µM (inactive) | > 100 µM (inactive) | > 100 µM (inactive) | > 100 µM (inactive) | > 100 µM (inactive) | > 100 µM (inactive) |
| COC(=O)CC(=O)OSc1ccccc1 | 17.3 µM (inactive) | 12.9 µM (inactive) | 17.7 µM (inactive) |  | 24.6 µM (inactive) | 15.7 µM (inactive) | 10.4 µM (inactive) |  |  | 21.1 µM (inactive) | 12.9 µM (inactive) | 41.7 µM (inactive) | 3.48 µM (inactive) | 25.4 µM (inactive) | 12.2 µM (inactive) | 17.6 µM (inactive) |  | 4.63 µM (inactive) | 1.61 µM (inactive) | 12.3 µM (inactive) |
